Here are results for two compounds from patent publication US9585871B2, “Method for treating and curing leishmaniosis using fexinidazole” (Merial Limited, priority 2013, dated 2017).

The subject of data set [1] is Leishmania donovani amastigotes grown in macrophages. The note with it: Wyllie S et al., 2012; cited from earlier work.
A short description of data set [2]: Multiple dosing study in dogs: systemic exposure (plasma) to fexinidazole and its metabolites. In kind it is in vivo, dog. The note with it: dog, in vivo, po, 800 mg/kg/day. The method, then:
In an embodiment, the fexinidazole may be administered to the canine as an aqueous oral suspension, comprising 5% TWEEN 80 and 0.5% Methyl cellulose 400 cP (METHOCEL). Provided in this format, fexinidazole suspensions of 5, 20, and 80 mg fexinidazole/mL may be prepared such that 10 mL of each concentration contains 50, 200, and 800 mg fexinidazole, respectively.
Moreover, inventors expect that a wide variety of dosing regimens are now available to the skilled person to achieve the necessary and sufficient fexinidazole plasma levels. For example, and as further outlined in the Examples below, any dosing regimen that produces substantially similar fexinidazole plasma levels, as compared to those levels produced by giving the dogs about 60 mg/kg/day for about twenty-eight days, is expected to substantially or completely eliminate the Leishmania parasites. Table 1 presents the systemic fexinidazole exposure following dosing of dogs with 50, 200, and 800 mg/kg/day.

`Cn1c([N+](=O)[O-])cnc1COc1ccc(S(C)(=O)=O)cc1` [sulfone metabolite]: in data set [1], the “activity against Leishmania donovani amastigotes grown in macrophages” value is recorded as “active”.

Take `Cn1c([N+](=O)[O-])cnc1COc1ccc([S+](C)[O-])cc1` (stereo not drawn) [sulfoxide metabolite]: the AUC0-24 in data set [2] was 74.3 ± 14.4^(1) μg · hour/mL. Further, the “activity against Leishmania donovani amastigotes grown in macrophages” value in data set [1] is recorded as “active”.
